Source: patent US20260109699A1, “AZOLE DERIVATIVES AS SHP2 INHIBITORS” (IRBM S.P.A., priority 2022, published 2026)

Legend:
[1] = tested on: phospho-ERK1/2 (Thr202/Tyr204); assay: Phospho-ERK cellular assay; format: cell-based; details: Homo sapiens; KYSE-520 cells, 2 h at 37° C, TR-FRET; read-out: pERK IC50
Protocol: ERK phosphorylation was detected using the “Advanced phospho-ERK1/2 (Thr202/Tyr204)” TR-FRET kit (Cisbio, Cat #64AERPEG/H), following the manufacturer reagents and instructions.
Briefly, 20.000/well KYSE-520 cells (DSMZ ACC 371) were plated in 6 μL RPMI-1640 (Invitrogen) growth medium, into 384 white low-volume high base TC microplates (Greiner). After an overnight incubation, cells were treated with DMSO serial diluted compounds and incubated for 2 h at 37° C. After incubation, 2 μL/well of 4×Lysis Buffer (Cisbio 64KL1FDF), were added and incubated with cells for 30 min on gentle shaking. Finally, lysates were added with 2 μL/well of Eu cryptate (donor) and D2 (acceptor) conjugated antibodies (as provided by the Cisbio kit #64AERPEG/H) diluted 1:100 in Detection Buffer (as provided by the Cisbio kit #64AERPEG/H). Plates were then sealed and incubated at rt in the dark. After an overnight incubation, the TR-FRET signal was detected on a suitable reader (Envision, PerkinElmer).
The lower the TR-FRET signal the higher the higher the SHP2 inhibition in cells.
The activity of each compound dilution was calculated as percentage between vehicle DMSO treated cells and no cells, 0% inhibition and 100% inhibition respectively. The percentage activity is fitted against the compound dilutions with a four-parameter logistic regression. The inflection point (i.e. the concentration at which half-maximal inhibition is achieved) is the IC50.
Legend: “+” indicates IC50 equal or higher than 0.5 μM; “++” indicates IC50 less than 0.5 μM and higher or equal to 0.1 μM; “+++” indicates IC50 less than 0.1 μM.

[2] = molecular target: T1, SHP-2 enzyme (Met1-Leu525), SHP2wt (Homo sapiens, UniProt Q06124); assay: SHP2 inhibition enzymatic assay; format: biochemical; details: 0.5 nM SHP-2 activated by 500 nM IRS1 peptide, 75 μM DiFMUP substrate
T1 construct: synthetized by Origene, Met1-Leu525, cat #TP750155; purchased Origene TP750155
T1 sequence (Q06124 1-525): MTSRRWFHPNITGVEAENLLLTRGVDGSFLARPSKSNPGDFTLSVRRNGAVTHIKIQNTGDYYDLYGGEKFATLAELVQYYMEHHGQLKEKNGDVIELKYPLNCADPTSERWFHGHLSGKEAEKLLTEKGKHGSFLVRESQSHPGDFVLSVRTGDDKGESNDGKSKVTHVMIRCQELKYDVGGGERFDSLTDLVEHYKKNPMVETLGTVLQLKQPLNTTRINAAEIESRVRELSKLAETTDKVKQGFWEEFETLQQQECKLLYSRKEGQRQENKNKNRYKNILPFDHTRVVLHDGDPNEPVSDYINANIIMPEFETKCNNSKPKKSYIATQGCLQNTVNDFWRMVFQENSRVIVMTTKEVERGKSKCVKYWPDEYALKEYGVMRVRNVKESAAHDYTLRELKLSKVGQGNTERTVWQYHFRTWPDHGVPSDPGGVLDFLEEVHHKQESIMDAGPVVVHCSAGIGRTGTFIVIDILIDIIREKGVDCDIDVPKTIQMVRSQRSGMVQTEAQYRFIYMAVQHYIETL
Protocol: The assay was performed as described in YP Chen et al, Nature (535) 2016. Assay volume of 20 μL/well was assembled in 384 well black polystyrene low-binding microplates (Greiner), using the following buffer: 60 mM HEPES pH 7.2, 75 mM NaCl, 75 mM KCl, 1 mM EDTA pH 8, 0.05% tween-20, 5 mM DTT. The SHP-2 enzyme (synthetized by Origene, Met1-Leu525, cat #TP750155) was used at a final concentration of 0.5 nM. The enzyme was activated by 500 nM IRS1 peptide (sequence: H2N-LN(pY)IDLDLV(dPEG8)LST(pY)ASINFQK-amide; Wang et al., iScience 25,104009, Apr. 15, 2022, https://doi.org/10.1016/j.isci.2022.104009) and incubated with 75 μM DiFMUP (Sigma) as substrate.
Briefly, DMSO serially diluted testing compounds were transferred to the bottom of the assay plate. SHP2 was then added together with the IRS1 peptide 30 min post incubation, the DiFMUP substrate was added to the reaction and incubated 30 min at rt. Finally 5 μL of 160 μM bpV (potassium bisperoxo[1,10-phenanthroline]oxovanadate [V], Sigma) were added to stop and quench the reaction. The fluorescence was detected by a microplate reader (Envision, PerkinElmer) according to the DiFMUP excitation and emission wavelength. The lower the fluorescence the higher the SHP2 inhibition.
The activity of each compound dilution was calculated as percentage of inhibition between vehicle (DMSO, 0% inhibition) and no enzyme (100% inhibition). The percentage inhibition is fitted against the compound dilutions with a four-parameter logistic regression. The inflection point (i.e. the concentration at which half-maximal inhibition is achieved) is the IC50.
Legend: A indicates IC50 less or equal to 0.05 μM; B indicates IC50 greater than 0.05 μM and lower or equal to 0.3 μM.

SMILES	IC50 [1]	IC50 [2]
N[C@@H]1c2ccnn2CC12CCN(c1cnc(Sc3ccncc3)cn1)CC2 [Example 25, (S)-1-(5-(pyridin-4-ylthio)pyrazin-2-yl)-4′H,6′H-spiro[piperidine-4,5′-pyrrolo[1,2-b]pyrazol]-4′-amine]	< 100 nM	≤ 50 nM
Cc1ccccc1Sc1cnc(N2CCC3(CC2)Cn2nccc2[C@H]3N)cn1 [Example 26, (S)-1-(5-(o-tolylthio)pyrazin-2-yl)-4′H,6′H-spiro[piperidine-4,5′-pyrrolo[1,2-b]pyrazol]-4′-amine]	< 100 nM	≤ 50 nM
CC(C)c1ccccc1Sc1cnc(N2CCC3(CC2)Cn2nccc2[C@H]3N)cn1 [Example 27, (S)-1-(5-((2-isopropylphenyl)thio)pyrazin-2-yl)-4′H,6′H-spiro[piperidine-4,5′-pyrrolo[1,2-b]pyrazol]-4′-amine]	< 100 nM	≤ 50 nM
N[C@@H]1c2cccn2CC12CCN(c1cnc(Sc3cccc(Cl)c3Cl)cn1)CC2 [Example 28, (S)-1-(5-((2,3-dichlorophenyl)thio)pyrazin-2-yl)-1′H,3′H-spiro[piperidine-4,2′-pyrrolizin]-1′-amine]	< 100 nM	≤ 50 nM
N[C@@H]1c2c(F)ccn2CC12CCN(c1cnc(Sc3cccc(Cl)c3Cl)cn1)CC2 [Example 29, (S)-1-(5-((2,3-dichlorophenyl)thio)pyrazin-2-yl)-7′-fluoro-1′H,3′H-spiro[piperidine-4,2′-pyrrolizin]-1′-amine]	< 100 nM	≤ 50 nM
N[C@@H]1c2ccnn2CC12CCN(c1cnc(-c3cccc(Cl)c3Cl)cn1)CC2 [Example 31, (S)-1-(5-(2,3-dichlorophenyl)pyrazin-2-yl)-4′H,6′H-spiro[piperidine-4,5′-pyrrolo[1,2-b]pyrazol]-4′-amine]	> 500 nM	≤ 50 nM
COc1cccc2c(Sc3cnc(N4CCC5(CC4)Cn4nccc4[C@H]5N)cn3)ccnc12 [Example 37, (S)-1-(5-((8-methoxyquinolin-4-yl)thio)pyrazin-2-yl)-4′H,6′H-spiro[piperidine-4,5′-pyrrolo[1,2-b]pyrazol]-4′-amine]	< 100 nM	≤ 50 nM
N[C@@H]1c2ccnn2CC12CCN(c1cnc(Sc3cccc4c3CCO4)cn1)CC2 [Example 38, (S)-1-(5-((2,3-dihydrobenzofuran-4-yl)thio)pyrazin-2-yl)-4′H,6′H-spiro[piperidine-4,5′-pyrrolo[1,2-b]pyrazol]-4′-amine]	100 to 500 nM	≤ 50 nM
N[C@@H]1c2ccnn2CC12CCN(c1cnc(Sc3ccccc3C(F)(F)F)cn1)CC2 [Example 41, (S)-1-(5-((2-(trifluoromethyl)phenyl)thio)pyrazin-2-yl)-4′H,6′H-spiro[piperidine-4,5′-pyrrolo[1,2-b]pyrazol]-4′-amine]	< 100 nM	≤ 50 nM
N[C@@H]1c2ccnn2CC12CCN(c1cnc(Sc3ccc4c(c3)CCO4)cn1)CC2 [Example 42, (S)-1-(5-((2,3-dihydrobenzofuran-5-yl)thio)pyrazin-2-yl)-4′H,6′H-spiro[piperidine-4,5′-pyrrolo[1,2-b]pyrazol]-4′-amine]	< 100 nM	≤ 50 nM
N#Cc1cccc(Sc2cnc(N3CCC4(CC3)Cn3nccc3[C@H]4N)cn2)c1C(F)(F)F [Example 43, (S)-3-((5-(4′-amino-4′H,6′H-spiro[piperidine-4,5′-pyrrolo[1,2-b]pyrazol]-1-yl)pyrazin-2-yl)thio)-2-(trifluoromethyl)benzonitrile]	< 100 nM	≤ 50 nM
N[C@@H]1c2ccnn2CC12CCN(c1cnc(Sc3cccc4c3CCC4)cn1)CC2 [Example 46, (S)-1-(5-((2,3-dihydro-1H-inden-4-yl)thio)pyrazin-2-yl)-4′H,6′H-spiro[piperidine-4,5′-pyrrolo[1,2-b]pyrazol]-4′-amine]	< 100 nM	≤ 50 nM

Continued, values first:

IC50 [1]	IC50 [2]	SMILES
< 100 nM	≤ 50 nM	N[C@@H]1c2ccnn2CC12CCN(c1cnc(Sc3cccc(F)c3Cl)cn1)CC2 [Example 30, (S)-1-(5-((2-chloro-3-fluorophenyl)thio)pyrazin-2-yl)-4′H,6′H-spiro[piperidine-4,5′-pyrrolo[1,2-b]pyrazol]-4′-amine]
< 100 nM	≤ 50 nM	N[C@@H]1c2ccnn2CC12CCN(c1cnc(Sc3ccc(F)cc3F)cn1)CC2 [Example 32, (S)-1-(5-((2,4-difluorophenyl)thio)pyrazin-2-yl)-4′H,6′H-spiro[piperidine-4,5′-pyrrolo[1,2-b]pyrazol]-4′-amine]
< 100 nM	≤ 50 nM	Cc1c(Cl)cccc1Sc1cnc(N2CCC3(CC2)Cn2nccc2[C@H]3N)cn1 [Example 33, (S)-1-(5-((3-chloro-2-methylphenyl)thio)pyrazin-2-yl)-4′H,6′H-spiro[piperidine-4,5′-pyrrolo[1,2-b]pyrazol]-4′-amine]
< 100 nM	≤ 50 nM	N[C@@H]1c2ccnn2CC12CCN(c1cnc(Sc3ccc(F)cc3Cl)cn1)CC2 [Example 34, (S)-1-(5-((2-chloro-4-fluorophenyl)thio)pyrazin-2-yl)-4′H,6′H-spiro[piperidine-4,5′-pyrrolo[1,2-b]pyrazol]-4′-amine]
< 100 nM	≤ 50 nM	Cc1cccc(Sc2cnc(N3CCC4(CC3)Cn3nccc3[C@H]4N)cn2)c1Cl [Example 35, (S)-1-(5-((2-chloro-3-methylphenyl)thio)pyrazin-2-yl)-4′H,6′H-spiro[piperidine-4,5′-pyrrolo[1,2-b]pyrazol]-4′-amine]
100 to 500 nM	≤ 50 nM	Cc1cc(Cl)ccc1Sc1cnc(N2CCC3(CC2)Cn2nccc2[C@H]3N)cn1 [Example 40, (S)-1-(5-((4-chloro-2-methylphenyl)thio)pyrazin-2-yl)-4′H,6′H-spiro[piperidine-4,5′-pyrrolo[1,2-b]pyrazol]-4′-amine]
< 100 nM	≤ 50 nM	Cc1cccc(Sc2cnc(N3CCC4(CC3)Cn3nccc3[C@H]4N)cn2)c1C [Example 47, (S)-1-(5-((2,3-dimethylphenyl)thio)pyrazin-2-yl)-4′H,6′H-spiro[piperidine-4,5′-pyrrolo[1,2-b]pyrazol]-4′-amine]
< 100 nM	≤ 50 nM	N[C@@H]1c2ccnn2CC12CCN(c1cnc(Sc3cc(F)ccc3F)cn1)CC2 [Example 48, (S)-1-(5-((2,5-difluorophenyl)thio)pyrazin-2-yl)-4′H,6′H-spiro[piperidine-4,5′-pyrrolo[1,2-b]pyrazol]-4′-amine]
< 100 nM	≤ 50 nM	N[C@@H]1c2ccnn2CC12CCN(c1cnc(Sc3ccc(F)c(F)c3F)cn1)CC2 [Example 49, (S)-1-(5-((2,3,4-trifluorophenyl)thio)pyrazin-2-yl)-4′H,6′H-spiro[piperidine-4,5′-pyrrolo[1,2-b]pyrazol]-4′-amine]
